Results published in the NIST ThermoML archive (doi:10.1016/j.jct.2008.02.016).
± gives the expanded uncertainty stated by the source.

Conditions: Liquid

| vapor or sublimation pressure (303.15 K) [kPa] | vapor or sublimation pressure (313.15 K) [kPa] | vapor or sublimation pressure (323.15 K) [kPa] | SMILES |
| --- | --- | --- | --- |
| 7.87 ± 0.16 | 12.33 ± 0.22 | 18.95 ± 0.3 | CCCCCCC [heptane] |
| 25.01 ± 0.37 | 37.54 ± 0.53 | 54.39 ± 0.74 | CCCCCC [hexane] |
